Results taken from article PMC8589421, “Impact of Type II LRRK2 inhibitors on signaling and mitophagy” (Biochemical Journal, 2021).
Where two headings read alike, the source gives them in different places.

Legend:
[1] = test system: Rab10 pThr73, LRRK2 [R1441C]; test: Rab10 Thr73 phospho-immunoblot in LRRK2[R1441C] knock-in MEFs; format: cell-based, mouse; conditions: LRRK2[R1441C] knock-in MEFs, 2 h, read-out: LRRK2 [R1441C] Rab10 pThr73 IC50
Experimental: (§1) Wild-type and homozygous LRRK2 [R1441C] (Jax, stock number: 009346), LRRK2[G2019S] Taconic, (model 13940) and LRRK2 [A2016T] (Jax, stock number: 021828)[7] knock-in MEF cells were isolated from littermate-matched mouse embryos on a C57BL/6J background at day E12.5 as described previously. MEFs were grown in Dulbecco's modified Eagle medium (DMEM GIBCO, #11960-085) containing 10% (by vol) fetal bovine serum (FBS), 2 mM L-glutamine, 100 U/ml penicillin, and […] streptomycin supplemented with non-essential amino acids and 1 mM sodium pyruvate. Human embryonic kidney 293 (HEK293) (#ATCC CRL-1573) and HeLa (#ATCC CCL-2) cells were purchased from American Tissue Culture Collection (ATCC) and cultured in DMEM containing 10% (by vol) FBS, 2 mM L-glutamine, 100 U/ml penicillin, and […] streptomycin. All cells were grown at 37°C, 5% (by vol) CO2 in a humidified atmosphere and regularly tested for mycoplasma contamination.
(§2) Inhibitors were dissolved in dimethyl sulfoxide (DMSO) (Sigma, #D2650). The inhibitors were diluted 1000× into cell medium. The equivalent volume of DMSO was added to the minus inhibitor controls. Experiments were performed in six-well plates, 10 cm dishes or 15 cm dishes depending on the amount of cell extract required.
Cells were lysed in an ice-cold lysis buffer containing 50 mM Tris–HCl, pH 7.4, 1% (by vol) Triton X-100, 10% (by vol) glycerol, 150 mM NaCl, 1 mM sodium orthovanadate, 50 mM NaF, 10 mM 2-glycerophosphate, 5 mM sodium pyrophosphate, 1 µg/ml microcystin-LR, and cOmplete EDTA-free protease inhibitor cocktail (Roche, #11836170001). Lysates were incubated on ice for 30 min and clarified by centrifugation at 20 800×g at 4°C for 20 min. Supernatants were quantified by Bradford assay (Bio-Rad Protein Assay Dye Reagent Concentrate #5000006) and samples prepared in 1× lithium dodecyl sulfate sample buffer final concentration (NuPage LDS Sample buffer 4× Invitrogen, #NP0008). When not deployed immediately, lysates were snap-frozen in liquid nitrogen and stored at −80°C until use. […]

[2] = test system: LRRK2 Ser935 phosphorylation, LRRK2[R1441C]; test: LRRK2 Ser935 phospho-immunoblot in LRRK2[R1441C] knock-in MEFs; format: cell-based, mouse
Experimental: as §1, §2
Cells were lysed in an ice-cold lysis buffer containing 50 mM Tris–HCl, pH 7.4, 1% (by vol) Triton X-100, 10% (by vol) glycerol, 150 mM NaCl, 1 mM sodium orthovanadate, 50 mM NaF, 10 mM 2-glycerophosphate, 5 mM sodium pyrophosphate, 1 µg/ml microcystin-LR, and cOmplete EDTA-free protease inhibitor cocktail (Roche, #11836170001). Lysates were incubated on ice for 30 min and clarified by centrifugation at 20 800×g at 4°C for 20 min. Supernatants were quantified by Bradford assay (Bio-Rad Protein Assay Dye Reagent Concentrate #5000006) and samples prepared in 1× lithium dodecyl sulfate sample buffer final concentration (NuPage LDS Sample buffer 4× Invitrogen, #NP0008). When not deployed immediately, lysates were snap-frozen in liquid nitrogen and stored at −80°C until use.
Cell extracts were mixed with a quarter of a volume of NuPage LDS Sample buffer 4× Invitrogen and heated at 95°C for 5 min. […] At the end of electrophoresis, proteins were electrophoretically transferred onto the nitrocellulose membrane (GE Healthcare, Amersham Protran Supported 0.45 µm NC) at 100 V for 90 min on ice in the transfer buffer (48 mM Tris–HCl and 39 mM glycine supplemented with 20% methanol). Transferred membrane was blocked with 5% (w/v) skim milk powder dissolved in TBS-T [20 mM Tris–HCl, pH 7.5, 150 mM NaCl and 0.1% (v/v) Tween 20] at room temperature for 1 h. […]

[3] = test system: Rab29 mediated relocalization of LRRK2 to the Golgi apparatus; test: Rab29 mediated recruitment of LRRK2 to the Golgi, immunofluorescence in HeLa cells; format: cell-based, human; conditions: 5 μM GZD-824 or 1 μM GSK3357679A for 4 h
Experimental: HeLa cells were seeded on coverslips and transfected with the plasmid reported in each image 24 h before fixation. Following the treatments with the inhibitors described in figure legends, cells were washed twice in DPBS and fixed with 3.7% Paraformaldehyde pH 7.3 (Agar scientific, #R1026), 200 mM HEPES, for 20 min. Cells were then washed twice with DMEM, 20 mM HEPES, and then incubated for 10 min with DMEM, 10 mM HEPES. After two washes in DPBS, fixed cells were permeabilized with 0.2% (by vol) NP-40 in DPBS for 10 min. Cells were blocked using 1% (by mass) BSA in DPBS, then incubated for 1 h with primary antibodies diluted in 1% (by mass) BSA in DPBS, washed three times in 0.2% (by mass) BSA in DPBS, and incubated for 1 h with secondary antibodies. The coverslips were washed three times with 0.2% (by mass) BSA in PBS. Coverslips were washed once more in double distilled water and mounted on slides (VWR, #631-0909) using ProLong™ Diamond Antifade Mountant (ThermoFisher, #P36961). For localization of the Golgi compartment, Golgin-97 was stained with rabbit anti-GM97 (CST, #D8P2K) and visualized with goat anti-rabbit conjugated to Alexa Fluor 405 (Life Technologies, #P10994). HA-Rab29 was stained with mouse anti-HA (Abcam, clone HA.C5 #ab18181) and visualized with goat anti-mouse conjugated to Alexa Fluor 594 (Life Technologies, #A-11032). […]

In the case of `Cc1ccc(C(=O)Nc2ccc(CN3CCN(C)CC3)c(C(F)(F)F)c2)cc1C#Cc1cnc2[nH]ncc2c1` [GZD-824], the IC50 [1] is reported as 262 nM, the IC50 ([1]; Mus musculus) is reported as 262 nM and the “time at which Ser935 phosphorylation plateaued” value ([2]; LRRK2[R1441C] cells, 1 μM) is reported as 160 min. For the same compound, the “time by which Ser935 phosphorylation increased” value ([2]; LRRK2[R1441C] cells, 1 μM) was at most 40 min, the “effect on Ser935 phosphorylation in LRRK2[R1441C] knock-in cells” value ([2]; dose and time dependent) was “rescue Ser935 phosphorylation” and the “impact on Rab29 mediated recruitment of LRRK2 to the Golgi” value [3] was “did not significantly impact”.
